The text below walks through data of US5371081A, “N-substituted phenoxazines for treating multidrug resistant cancer cells” (St. Jude Children's Research Hospital, priority 1993, dated 1994).

The structures appear in SMILES notation. Where two headings read alike, the source gives them in different places.

For assay [1], the system named is KB Ch^R -8-5 Cells. The experiment in a line: Vinca (VCR, VLB) accumulation, anti-MDR activity. In kind it is cell-based. The note with it: Homo sapiens, compound 100 μM, 2 h, room temperature, mean of two experiments, SD <10%. As for the experimental part: The resistance of the KBCh®-8-5 cells was maintained by culturing them with colchicine (10 ng/ml).
Then, 2 mL of cell suspensions (2×10^6) were plated in 35×10 mm style "easy grip" culture dishes (Becton Dickinson Co., Lincoln Park, N.J.). Cells were allowed to attach to plastic overnight at 37° C. Medium was aspirated and cells were washed with (2×2 mL) physiologic tris (PT) buffer. […] VCR (sp.act. 7.1 ci/mmol) or 49.5 nm [^3 H] […] After 2 h of incubation at room temperature, medium was rapidly aspirated to terminate drug accumulation, and monolayers were washed four times with ice-cold PBS (g/L: NaCL 8.0; Na2 HPO4.12H2 O, 2.9; KCl 0.2; KH2 PO4, 0.2) and drained. To each dish, 1 ml of trypsin-EDTA (0.05% trypsin, 0.53 mM EDTA) was added. After 1 minute, monolayers were triturated to give a uniform suspension of cells, and radioactivity in 0.75 ml was determined by scintillation counting. Cell number per dish was determined on 200 μl of suspension using the method of Butler, and amounts of intracellular VCR or VLB were determined.

Assay [2] relates to GC3 /Cl Cells. The assay can be described thus: Vinca (VCR, VLB) accumulation, anti-MDR activity. In kind it is cell-based. Particulars: Homo sapiens, compound 100 μM, 2 h, room temperature, mean of two experiments, SD <10%.
Assay [3] concerns KBCh^R -8-5. The experiment in a line: Cytotoxicity of N-substituted phenoxazines to tumor cells (clonogenic survival). In kind it is cell-based. The note with it: Homo sapiens, 168 h, 7 days, 37° C., read-out: IC50 (50% reduction in clonogenic survival). As for the experimental part:
(§1) The KBCh®-8-5 cells were plated in triplicate at a density of 1000 cells per well and GC3 at 3000 cells per well in Falcon 6-well flat-bottom tissue culture plates (Becton Dickinson Co., Lincoln Park, N.J.). After 24 h, incubation medium was replaced with 3 mL of fresh medium containing compounds 1-4 or 10-14 or 18 at concentrations ranging from 1-100 μm (final culture concentration, 0.1% DMSO), and cells were incubated at 37° C. for a further 7 days. The medium was aspirated and cells were washed once with 2 mL of 0.9% saline and dried overnight. Colonies were stained with 1 mL of 0.1% crystal violet followed by washing twice with distilled water and were counted using an automated ARTEK Model 880 colony counter. The IC50 values were determined from concentration-percent-cell-survival curves and were defined as the concentrations of phenoxazines required for 50% reduction in colonies compared to controls.
(§2) ^a IC50 is the concentration required to produce 50% reduction i
(§3) clonogenic survivial of GC3 /Cl and KBCH^R -85 cells under the
(§4) conditions described in Example 23.

Assay [4] deals with GC3 /CL. The description is as above. It is filed as cell-based. Particulars: Homo sapiens, 168 h, 7 days, 37° C., read-out: IC50 (50% reduction in clonogenic survival). As for the experimental part: as §1, §2, §3, §4
Assay [5] has as its system KBCh®-8-5. The experiment in a line: Cross-resistance of cell line to VCR and VLB. It is filed as cell-based, human. Particulars: KBCh®-8-5, colchicine selected MDR variant. As for the experimental part: A cloned line of human colon adenocarcinoma, GC3 /Cl^31, which is intrinsically resistant to VCR (≈4-fold relative to KB-3-1), was routinely grown at 37° C. in antibiotic-free RPMI-1640 medium supplemented with 2 mM glutamine and 10% FBS (Hyclone Laboratories, Inc., Logan, Utah) in a humidified atmosphere of 5% CO2 and 95% air. Human epidermoid carcinoma KB-3-1 cells and a colchicine selected MDR variant, KBCh®-8-5, were obtained which was cross-resistant to VCR (45-fold) and VLB (6.3-fold); it was grown in monolayer culture at 37° C. in DMEM with 10% FBS and L-glutamine in a humidified atmosphere of 10% CO2 in air. The resistance of the KBCh®-8-5 cells was maintained by culturing them with colchicine (10 ng/ml).

Assay [6] concerns GC3 /Cl Cells. The assay can be described thus: Potentiation of cytotoxicity of vincristine and vinblastine. In kind it is cell-based. The note with it: Homo sapiens, 168 h, read-out: IC50 of VLB alone. As for the experimental part: (§5) Tumor cells were treated with graded concentrations of VCR and VLB in the absence or presence of nontoxic concentrations of the products of Examples 1, 3, 4 and 18. The plates were then transferred to a CO2 incubator and, after further incubation for 7 days at 37° C., colonies were enumerated as described in Example 23.
(§6) ^a IC50 concentration of modulator

The test system of assay [7] is KB Ch^R -8-5 Cells. The description is as above. It is filed as cell-based. The note with it: Homo sapiens, 168 h, read-out: IC50 of VLB alone. As for the experimental part: as §5, §6
For assay [8], the system named is MDR. Particulars: in model systems; cited from earlier work.
[9] abbreviates: [3H] VCR 70.4 nm, read-out: Vinca Accumulation, VCR.
The mark [10] stands for this setting: [3H] VLB 49.5 nm, read-out: Vinca Accumulation, VLB.

Consider `ClCCCN1c2ccccc2Oc2ccccc21` [Compound 1, 10-(3'-chloropropyl)-phenoxazine], for which the results for the activity at 100 µM in assay [1] (setting [9]) and in assay [2] (setting [9]) were 454% and 846%, respectively. Besides, the IC50 – broadly, the concentration that inhibits the measured activity by half – in assay [3] is 57 µM; in assay [4], 83 µM.
For the compound `CCN(CC)CCCN1c2ccccc2Oc2ccccc21` [Compound 2, 10-(3'-diethylaminopropyl)phenoxazine], the activity at 100 µM in assay [1] (setting [9]) is 546%; in assay [2] (setting [9]) it was 439%. For the same compound, in assay [3], the IC50 is 15 µM.
Regarding `OCCN(CCO)CCCN1c2ccccc2Oc2ccccc21` [Compound 3, 10-(3'-bishydroxyethylaminopropyl)phenoxazine], the activity at 100 µM in assay [1] (setting [9]) was determined as 473%; in assay [2] (setting [9]) it was 464%. For the same compound, the IC50 worked out at 38 µM in assay [3] and 37 µM in assay [4].
For `c1ccc2c(c1)Oc1ccccc1N2CCCN1CCOCC1` [Compound 4, 10-(3'-N-morpholinopropyl)phenoxazine], in that order: 742%, 634%, 73 µM and 40 µM.
Regarding `c1ccc2c(c1)Oc1ccccc1N2CCCN1CCCCC1` [Compound 5, 10-(3'-N-piperidinopropyl)phenoxazine], the activity at 100 µM was found to be 435% in assay [1] (setting [9]) and 282% in assay [2] (setting [9]).
The like results for `OCCN1CCN(CCCN2c3ccccc3Oc3ccccc32)CC1` [Compound 6, 10-(3'-β-hydroxyethylpiperazinopropyl) phenoxazine] were, in that order, 343% and 368%.
Regarding `c1ccc2c(c1)Oc1ccccc1N2CCCN1CCCC1` [Compound 7, 10-(3'-N-pyrrolidinopropyl)phenoxazine], the activity at 100 µM turned out to be 408% in assay [1] (setting [9]) and 250% in assay [2] (setting [9]).
For `ClCCCCN1c2ccccc2Oc2ccccc21` [Compound 8, 10-(4'-chlorobutyl)phenoxazine], in that order: 398% and 317%.
The like results for `CCN(CC)CCCCN1c2ccccc2Oc2ccccc21` [Compound 9, 10-(4'-diethylaminobutyl)phenoxazine] were, in that order, 211% and 325%.
On to `OCCN(CCO)CCCCN1c2ccccc2Oc2ccccc21` [Compound 10, 10-(4'-bishydroxyethylaminobutyl) phenoxazine], for which the activity at 100 µM in assay [1] (setting [9]) came to 92%; in assay [2] (setting [9]) it was 382%. The IC50 in assay [3] was under 10 µM; in assay [4] it was 16 µM.
The like results for `c1ccc2c(c1)Oc1ccccc1N2CCCCN1CCOCC1` [Compound 11, 10-(4'-N-morpholinobutyl)phenoxazine] were, in that order, 702%, 477%, 18 µM and 27 µM.
For `c1ccc2c(c1)Oc1ccccc1N2CCCCN1CCCCC1` [Compound 12, 10-(4'-N-piperidinobutyl)phenoxazine], the activity at 100 µM came out at 196% in assay [1] (setting [9]) and 416% in assay [2] (setting [9]). The concentration for half-maximal inhibition (IC50) in assay [3] was under 10 µM; in assay [4], 7 µM.
As to `OCCN1CCN(CCCCN2c3ccccc3Oc3ccccc32)CC1` [Compound 13, 10-(4'-β-hydroxyethylpiperazinobutyl) phenoxazine], the activity at 100 µM in assay [1] (setting [9]) came out at 91%; in assay [1] (setting [10]), 188%; in assay [2] (setting [9]), 543%. Besides, the results for the IC50 in assay [3] and in assay [4] were under 10 µM and 7 µM, respectively.
As to `c1ccc2c(c1)Oc1ccccc1N2CCCCN1CCCC1` [Compound 14, 10-(4'-N-pyrrolidinobutyl)phenoxazine], the activity at 100 µM was 198% in assay [1] (setting [9]), 477% in assay [1] (setting [10]) and 412% in assay [2] (setting [9]). Besides, the concentration for half-maximal inhibition (IC50) in assay [3] was under 10 µM; in assay [4] it was 8 µM.
Consider `O=C(CCl)N1c2ccccc2Oc2ccccc21` [Compound 15, 10-(chloroacetyl)phenoxazine], for which the activity at 100 µM in assay [1] (setting [9]) amounted to 138%; in assay [1] (setting [10]), 236%; in assay [2] (setting [9]), 171%; in assay [2] (setting [10]), 284%.
On to `CCN(CC)CC(=O)N1c2ccccc2Oc2ccccc21` [Compound 16, 10-(diethylaminoacetyl)phenoxazine], for which the activity at 100 µM is 184% in assay [1] (setting [9]), 953% in assay [1] (setting [10]), 160% in assay [2] (setting [9]) and 305% in assay [2] (setting [10]).
As to `O=C(CN1CCOCC1)N1c2ccccc2Oc2ccccc21` [Compound 17, 10-(N-morpholinoacetyl)phenoxazine], the activity at 100 µM in assay [1] (setting [9]) was determined as 290%; in assay [1] (setting [10]), 674%; in assay [2] (setting [9]) it was 213%; in assay [2] (setting [10]), 298%.
In the case of `O=C(CN1CCCCC1)N1c2ccccc2Oc2ccccc21` [Compound 18, 10-(N-piperidinoacetyl)phenoxazine], the activity at 100 µM in assay [1] (setting [9]) came out at 326%; in assay [2] (setting [9]) it was 177%; in assay [2] (setting [10]), 446%. Besides, the IC50 in assay [3] turned out to be 73 µM.
Regarding `O=C(CN1CCN(CCO)CC1)N1c2ccccc2Oc2ccccc21` [Compound 19, 10-(β-hydroxyethylpiperazinoacetyl)phenoxazine], the activity at 100 µM in assay [1] (setting [9]) was determined as 280%; in assay [1] (setting [10]), 776%; in assay [2] (setting [9]), 157%; in assay [2] (setting [10]), 426%.
The like results for `O=C(CN1CCCC1)N1c2ccccc2Oc2ccccc21` [Compound 20, 10-(N-pyrrolidinoacetyl)phenoxazine] were, in that order, 188%, 776%, 151% and 296%.
The like results for `O=C(N1c2ccccc2Oc2ccccc21)C(F)(F)F` [Compound 21, 10-(trifluoroacetyl)phenoxazine] were, in that order, 415%, 827%, 230% and 222%.
Consider `CC[C@]1(O)C[C@@H]2CN(CCc3c([nH]c4ccccc34)[C@@](C(=O)OC)(c3cc4c(cc3OC)N(C)[C@H]3[C@@](O)(C(=O)OC)[C@H](OC(C)=O)[C@]5(CC)C=CCN6CC[C@]43[C@@H]65)C2)C1` [VLB], for which the “cross-resistance to VLB” value in assay [5] turned out to be 6.3 fold. The IC50 in assay [6] was 7.4 nM; in assay [7] it was 20 nM.
For `COc1ccc(CCN(C)CCCC(C#N)(c2ccc(OC)c(OC)c2)C(C)C)cc1OC` (stereo not shown) [Verapamil], the “modifying MDR” value in assay [8] is “active in modifying MDR”.
On to `C=C[C@H]1C[N@@]2CC[C@H]1C[C@@H]2[C@@H](O)c1ccnc2ccc(OC)cc12` [quinidine], for which, in assay [8], the “modifying MDR” value is given as “active in modifying MDR”.
On to `COC(=O)[C@H]1[C@H]2C[C@@H]3c4[nH]c5cc(OC)ccc5c4CCN3C[C@H]2C[C@@H](OC(=O)c2cc(OC)c(OC)c(OC)c2)[C@@H]1OC` [reserpine], for which the “modifying MDR” value in assay [8] is given as “active in modifying MDR”.
`CN1CCN(CCCN2c3ccccc3Sc3ccc(C(F)(F)F)cc32)CC1` [trifluoperazine]: in assay [8], the “modifying MDR” value is recorded as “active in modifying MDR”.
